Patent US7422886B2, “Method for determining modulation of P110Δ activity” (Ludwig Institute for Cancer Research, priority 1996, dated 2008)
pIC50: −log10 of the molar value.

Columns and labels:
p110δ/p85α = p110δ/p85α (Homo sapiens, UniProt O00329, S675R); experiment: Lipid kinase assay of drug effects on p110δ/p85α; format: biochemical; details: PtdIns substrate, 40 μM ATP, 10 min at 25° C., 1% DMSO; read-out: IC50, inhibition of lipid kinase activity
Method: (§1) Lipid kinase activity was performed essentially as described by Whitman et al. (1985). Lipid kinase assay buffer was 20 mM Tris HCl pH 7.4, 100 mM NaCl and 0.5 mM EGTA. Lipids were purchased from Sigma. The final concentration of ATP and Mg^2+ in the assay were routinely 0.5 and 3.5 mM, respectively, while lipids were used at 0.2-0.4 mM concentration. Unless otherwise indicated, kinase reaction was for 10 min at 37° C. The solvent for TLC separation of reaction products was propan-1-ol/2 M acetic acid/5 M H3PO4 (65:35:1). Assays of drug effects on the kinase were performed using PtdIns as substrate in the presence of 40 μM ATP (final) for 10 min at 25° C.; all tubes contained 1% DMSO. Activity was quantified by phosphorimager (Molecular Dynamics) analysis of TLC-separated lipid products.

p110α/p85α = p110α/p85α (Bos taurus, UniProt P32871); experiment: Lipid kinase assay of drug effects on p110α/p85α; format: biochemical
Sequence of p110α/p85α (P32871 whole entry): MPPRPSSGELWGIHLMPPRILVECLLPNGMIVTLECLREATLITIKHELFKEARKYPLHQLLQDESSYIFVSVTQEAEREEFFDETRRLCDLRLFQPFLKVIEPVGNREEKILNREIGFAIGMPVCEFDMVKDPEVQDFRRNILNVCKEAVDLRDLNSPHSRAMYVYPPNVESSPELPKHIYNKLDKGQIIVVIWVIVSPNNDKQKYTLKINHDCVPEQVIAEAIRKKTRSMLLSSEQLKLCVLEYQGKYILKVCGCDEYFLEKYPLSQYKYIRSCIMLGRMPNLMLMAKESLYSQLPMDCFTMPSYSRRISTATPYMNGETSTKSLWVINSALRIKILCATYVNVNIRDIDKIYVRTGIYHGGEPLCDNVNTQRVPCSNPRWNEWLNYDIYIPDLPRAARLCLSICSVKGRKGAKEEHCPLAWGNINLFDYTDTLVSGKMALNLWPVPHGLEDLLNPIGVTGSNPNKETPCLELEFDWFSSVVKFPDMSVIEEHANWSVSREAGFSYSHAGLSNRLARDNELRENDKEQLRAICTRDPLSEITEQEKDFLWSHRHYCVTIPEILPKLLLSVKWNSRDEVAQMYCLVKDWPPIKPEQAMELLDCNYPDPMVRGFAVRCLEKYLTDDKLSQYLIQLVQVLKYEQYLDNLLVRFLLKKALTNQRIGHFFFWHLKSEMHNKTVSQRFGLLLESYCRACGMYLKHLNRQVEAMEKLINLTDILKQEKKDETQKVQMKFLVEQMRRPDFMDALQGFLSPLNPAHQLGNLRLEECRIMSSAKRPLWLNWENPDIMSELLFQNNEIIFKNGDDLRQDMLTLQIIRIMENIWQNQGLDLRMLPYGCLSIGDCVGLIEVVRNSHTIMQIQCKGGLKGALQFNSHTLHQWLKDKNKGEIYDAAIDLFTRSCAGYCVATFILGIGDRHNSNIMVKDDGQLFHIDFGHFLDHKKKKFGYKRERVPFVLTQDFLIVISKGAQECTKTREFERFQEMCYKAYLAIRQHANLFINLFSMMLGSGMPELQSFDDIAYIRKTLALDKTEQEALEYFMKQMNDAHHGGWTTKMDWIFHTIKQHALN
Method: as §1

Sequence of p110δ/p85α (O00329 whole entry S675R): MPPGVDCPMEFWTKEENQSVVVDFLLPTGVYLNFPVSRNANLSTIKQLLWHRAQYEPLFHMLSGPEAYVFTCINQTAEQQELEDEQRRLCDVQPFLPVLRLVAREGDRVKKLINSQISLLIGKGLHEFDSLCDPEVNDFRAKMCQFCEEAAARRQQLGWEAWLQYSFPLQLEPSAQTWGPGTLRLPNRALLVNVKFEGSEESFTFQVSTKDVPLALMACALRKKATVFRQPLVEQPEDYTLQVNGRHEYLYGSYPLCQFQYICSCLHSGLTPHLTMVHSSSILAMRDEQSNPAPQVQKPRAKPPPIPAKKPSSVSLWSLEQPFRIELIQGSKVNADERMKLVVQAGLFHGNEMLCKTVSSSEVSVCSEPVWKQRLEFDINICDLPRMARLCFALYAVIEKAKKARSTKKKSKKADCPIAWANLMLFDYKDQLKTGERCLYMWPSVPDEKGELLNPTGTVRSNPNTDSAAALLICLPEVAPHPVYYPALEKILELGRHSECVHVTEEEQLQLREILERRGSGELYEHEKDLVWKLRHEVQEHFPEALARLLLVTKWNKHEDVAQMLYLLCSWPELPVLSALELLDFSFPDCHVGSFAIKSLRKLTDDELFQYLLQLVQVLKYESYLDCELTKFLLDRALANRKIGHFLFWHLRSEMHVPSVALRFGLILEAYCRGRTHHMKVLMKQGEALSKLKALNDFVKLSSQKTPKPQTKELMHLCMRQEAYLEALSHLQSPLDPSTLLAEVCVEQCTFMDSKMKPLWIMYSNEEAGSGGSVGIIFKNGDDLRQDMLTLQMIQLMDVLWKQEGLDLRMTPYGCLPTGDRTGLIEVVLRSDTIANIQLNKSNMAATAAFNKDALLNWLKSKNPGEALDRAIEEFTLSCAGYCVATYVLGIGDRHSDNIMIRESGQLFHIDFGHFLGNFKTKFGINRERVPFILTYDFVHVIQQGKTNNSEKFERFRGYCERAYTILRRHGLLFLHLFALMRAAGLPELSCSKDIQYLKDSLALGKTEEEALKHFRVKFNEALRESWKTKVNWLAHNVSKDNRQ
Sequence of p110δ/p85α (P27986 whole entry partner): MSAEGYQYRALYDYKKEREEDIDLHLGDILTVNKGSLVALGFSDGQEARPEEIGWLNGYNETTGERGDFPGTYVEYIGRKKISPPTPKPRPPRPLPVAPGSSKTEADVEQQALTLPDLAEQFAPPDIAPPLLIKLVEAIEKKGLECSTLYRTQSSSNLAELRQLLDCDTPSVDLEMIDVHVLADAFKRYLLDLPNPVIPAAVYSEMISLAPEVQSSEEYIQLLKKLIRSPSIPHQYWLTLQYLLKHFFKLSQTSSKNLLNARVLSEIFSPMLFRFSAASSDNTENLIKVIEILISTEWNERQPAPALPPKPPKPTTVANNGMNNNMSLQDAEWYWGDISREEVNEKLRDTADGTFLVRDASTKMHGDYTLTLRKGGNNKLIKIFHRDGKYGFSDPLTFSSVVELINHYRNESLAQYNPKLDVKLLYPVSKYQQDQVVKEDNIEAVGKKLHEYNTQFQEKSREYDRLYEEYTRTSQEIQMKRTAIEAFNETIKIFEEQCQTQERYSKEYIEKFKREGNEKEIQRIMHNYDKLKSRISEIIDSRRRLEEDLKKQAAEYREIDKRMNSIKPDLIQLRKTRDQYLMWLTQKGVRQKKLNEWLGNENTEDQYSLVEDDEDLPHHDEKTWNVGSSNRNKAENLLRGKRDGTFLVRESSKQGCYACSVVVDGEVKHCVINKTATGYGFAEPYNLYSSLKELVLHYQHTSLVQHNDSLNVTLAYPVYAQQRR

Row | pIC50 (p110δ/p85α) | Structure (SMILES) | pIC50 (p110α/p85α)
1 | 6.30 | O=c1cc(N2CCOCC2)oc2c(-c3ccccc3)cccc12 [LY294002] | –
2 | – | COC[C@H]1OC(=O)c2coc3c2[C@@]1(C)C1=C(C3=O)[C@@H]2CCC(=O)[C@@]2(C)C[C@H]1OC(C)=O [wortmannin] | 8.30
